The text below walks through data of publication PMC11520554, “The endocannabinoid ARA-S facilitates the activation of cardiac Kv7.1/KCNE1 channels from different species” (Channels, 2024).

Like-named read-outs stand apart in the source and are kept apart here.

For test [1], the target named is guinea pig Kv7.1/KCNE1 channel (Cavia porcellus, UniProt A6Y9U2). Nature of the test: Two-electrode voltage clamp of Kv7.1/KCNE1 expressed in Xenopus laevis oocytes. The test is classed as cell-based. The source says:
(§1) Isolation of Xenopus laevis oocytes was approved by the Linköping Animal Care and Use Committee (Permits #1941 and #14515) and conforms to national and international guidelines. All procedures conform to the guidelines from Directive 2010/63/EU of the European Parliament on the protection of animals used for scientific purposes. A total of 30 female adult (minimum 1 year of age) Xenopus laevis animals (from Nasco, WI, USA) underwent surgery to isolate oocytes. The frogs were anaesthetized for 15 minutes in a bath of 1.4 g/L MS-222 Sandoz (Ethyl 3-aminobenzoate methanesulfonate, Sigma Aldrich, Stockholm). The depth of anesthesia was monitored by checking for reflexes when the paws were pinched. A small incision was made on the abdomen to expose lobes of oocytes, which were collected using a surgical scissor. The small incision was closed with suture and local anesthesia (Marcain 5 mg/ml and Xylocain 2%, Distansapoteket, Stockholm) topically applied to relieve pain subsequent to surgery. At the experimental endpoint (in association with the 6th surgery), animals were sacrificed by decapitation under deep anesthesia (which was induced by the bath of 1.4 g/L MS-222 Sandoz). ARRIVE guidelines were followed. Note that experiments were performed on isolated oocytes only (no in vivo experiments were performed). Oocytes were isolated and maintained as previously described. The constructs used had the following accession numbers: human Kv7.1: NM_000218; human KCNE1: NM_000219; guinea pig Kv7.1: NM_001172821.1; guinea pig KCNE1: NM_001172972.1; rabbit Kv7.1: XM_008252197.2; rabbit KCNE1: NM_001109822. Oocytes were injected with RNA for human, guinea pig or rabbit Kv7.1 and KCNE1. The amounts injected were 12.5 ng of human Kv7.1 and 7.5 ng of human KCNE1, 1.25 ng of guinea pig Kv7.1 and 1.25 ng of guinea pig KCNE1, and 0.9 ng of rabbit Kv7.1 and 0.55 ng of rabbit KCNE1. Following injection, the oocytes were generally incubated at 16°C for 1 to 2 days.
(§2) Two-electrode voltage clamp recordings were performed at room temperature using a Dagan CA-1B amplifier (Dagan, MN, USA) or an AxoClamp 900A amplifier (Molecular Devices, CA, USA). All chemicals are from Sigma-Aldrich (Stockholm, Sweden), unless stated otherwise. N-arachidonoyl-L-serine (ARA-S) was bought from Cayman Chemicals (MI, USA) and delivered as a stock solution of 26 mM in EtOH from the supplier. The stock solution was stored at −20°C according to supplier instructions. The control solution contained (in mM): 88 NaCl, 1 KCl, 0.4 CaCl2, 0.8 MgCl2, and 15 HEPES (with pH set to 7.4 using NaOH). For ARA-S experiments, the control solution was supplemented with indicated concentrations of ARA-S. The holding voltage was set to −80 mV. Activation curves were generally generated in steps between −80 and + 60 or +80 mV in increments of 10 mV (5-s duration). The tail voltage was set to −20 or −30 mV. Control solution or ARA-S supplemented solution was continuously perfused into the oocyte chamber at a speed of 1 mL/min using a Minipuls 3 peristaltic pump (Gilson, WI, USA). ARA-S was applied until a stable effect on current amplitude was observed, achieved after approximately 10 minutes, monitored by running an application protocol stepping from a holding voltage of −80 mV to a test voltage of 0 mV every 10 seconds. In the time-matched control experiments for rabbit and guinea pig channels, experiments were performed in a similar way as with ARA-S but with EtOH only; i.e. the first control recording was performed in control solution (no vehicle) and the subsequent recordings done with vehicle only added (i.e. EtOH but no ARA-S). The tubing system and recording chamber were cleaned between cells with 70% EtOH and distilled H2O.
(§3) To quantify the voltage dependence of channel opening, tail currents were measured shortly after stepping to the tail voltage and plotted against the preceding activation voltage. […]
A general note: Two-electrode voltage clamp is typically applied to oocytes expressing channels or transporters.

For test [2], the target named is T1, human Kv7.1/KCNE1 channel (Homo sapiens, UniProt P51787).
T1 construct: expressed in transfected cells; host or cells: Xenopus laevis oocytes (RNA injection)
The description is as above. The test is classed as cell-based.
From the text: as §1, §2, §3

Test [3] addresses rabbit Kv7.1/KCNE1 channel (Oryctolagus cuniculus, UniProt Q9MYS6). The description is as above. The test is classed as cell-based.
From the text: as §1, §2, §3

The test system of test [4] is Kv7.1/KCNE1 from all three species. Nature of the test: Two-electrode voltage clamp, summary over channels from all three species. The test is classed as cell-based. Conditions: predicted from fits, range over human, guinea pig and rabbit channels.
From the text: Isolation of Xenopus laevis oocytes was approved by the Linköping Animal Care and Use Committee (Permits #1941 and #14515) and conforms to national and international guidelines. All procedures conform to the guidelines from Directive 2010/63/EU of the European Parliament on the protection of animals used for scientific purposes. A total of 30 female adult (minimum 1 year of age) Xenopus laevis animals (from Nasco, WI, USA) underwent surgery to isolate oocytes. The frogs were anaesthetized for 15 minutes in a bath of 1.4 g/L MS-222 Sandoz (Ethyl 3-aminobenzoate methanesulfonate, Sigma Aldrich, Stockholm). The depth of anesthesia was monitored by checking for reflexes when the paws were pinched. […]
Two-electrode voltage clamp recordings were performed at room temperature using a Dagan CA-1B amplifier (Dagan, MN, USA) or an AxoClamp 900A amplifier (Molecular Devices, CA, USA). […] ARA-S was applied until a stable effect on current amplitude was observed, achieved after approximately 10 minutes, monitored by running an application protocol stepping from a holding voltage of −80 mV to a test voltage of 0 mV every 10 seconds. […]
as §3

Test [5] deals with T1, human Kv7.1/KCNE1 channel. On the set-up: method as in PMID 36796231. The note with it: cited from earlier work.
Test [6] deals with cannabinoid receptor 1 (CB1). On the set-up: method as in PMID 16467152, PMID 20649563. The note with it: cited from earlier work.
The next test deals with CB2. Details: method as in PMID 16467152, PMID 20649563. The note with it: at concentrations as high as 30 µM; cited from earlier work.
For a further test, the system named is TRPV1 channels. On the set-up: method as in PMID 16467152, PMID 20649563. The note with it: at concentrations as high as 30 µM; cited from earlier work.
Another test has as its system guinea pig heart. On the set-up: method as in PMID 36796231. Conditions: cited from earlier work.
For test [7], the system named is human Kv7.1/KCNE1 channels. On the set-up: method as in PMID 34601592. The note with it: compared between human and rabbit channels; cited from earlier work.
Test [8] relates to rabbit Kv7.1/KCNE1 channels. On the set-up: method as in PMID 34601592. The note with it: compared between human and rabbit channels; cited from earlier work.
Test [9] concerns guinea pig-like Kv7.1/KCNE1 channel. On the set-up: method as in PMID 32223014. The note with it: cited from earlier work.
Where [10] appears, read: best fit, 0 mV, read-out: EC50 for current amplitude (Iamp) at 0 mV.
Setting [11] is: best fit, 20 mV, read-out: EC50 for current amplitude (Iamp) at 20 mV.
[12] abbreviates: best fit, 20 mV, read-out: ΔIamp, 20 mV, max.
[13] abbreviates: best fit, 40 mV, read-out: EC50 for current amplitude (Iamp) at 40 mV.

rabbit Kv7.1/KCNE1 channel, sequence (Q9MYS6 whole entry): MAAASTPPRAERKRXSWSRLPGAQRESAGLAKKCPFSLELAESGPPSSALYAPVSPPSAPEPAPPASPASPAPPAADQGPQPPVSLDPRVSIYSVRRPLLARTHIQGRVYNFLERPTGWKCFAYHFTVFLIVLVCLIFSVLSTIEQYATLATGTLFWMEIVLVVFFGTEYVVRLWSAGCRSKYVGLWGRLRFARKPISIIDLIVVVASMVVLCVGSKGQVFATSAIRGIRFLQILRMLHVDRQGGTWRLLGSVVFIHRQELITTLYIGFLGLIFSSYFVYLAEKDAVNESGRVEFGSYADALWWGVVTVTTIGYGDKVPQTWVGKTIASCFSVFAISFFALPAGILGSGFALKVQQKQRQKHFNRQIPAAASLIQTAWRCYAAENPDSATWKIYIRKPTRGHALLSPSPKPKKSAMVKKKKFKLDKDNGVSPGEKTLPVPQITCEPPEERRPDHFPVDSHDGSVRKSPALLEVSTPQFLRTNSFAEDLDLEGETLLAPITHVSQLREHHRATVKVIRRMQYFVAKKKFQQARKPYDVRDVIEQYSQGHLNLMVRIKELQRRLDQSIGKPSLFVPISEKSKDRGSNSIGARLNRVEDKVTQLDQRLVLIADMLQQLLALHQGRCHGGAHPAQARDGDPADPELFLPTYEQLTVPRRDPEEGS
rabbit Kv7.1/KCNE1 channel, sequence (Q28705 whole entry partner): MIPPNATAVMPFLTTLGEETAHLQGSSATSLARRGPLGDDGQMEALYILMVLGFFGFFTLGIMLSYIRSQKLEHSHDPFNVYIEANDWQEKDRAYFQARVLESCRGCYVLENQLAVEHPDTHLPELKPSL

Regarding `CCCCC/C=C\C/C=C\C/C=C\C/C=C\CCCC(=O)NC(CO)C(=O)O` (stereo in doubt) [ARA-S, N-arachidonoyl-L-serine], the EC50 in test [1] (best fit of concentration-response, n = 5-8, read-out: EC50 for the V50 effect) is 6.2 µM; in [1] (setting [10]), 4.7 µM; in test [1] (setting [11]), 3 µM; in [1] (setting [13]) it was 4.2 µM; in [1] (best fit, read-out: EC50 for the maximal conductance (GMAX) effect), 1.6 µM; in [3] (best fit of concentration-response, n = 6-7, read-out: EC50 for the V50 effect) it was 3.1 µM. Besides, the EC50 in test [3] (setting [10]) was 2.2 µM; in test [3] (setting [11]), 1.2 µM; in test [4] (read-out: concentration required to reach 50% of the maximal effect on V50), 3 to 9 µM; in test [5] (best fit of concentration-response, human data duplicated, read-out: EC50 for the V50 effect), 8.9 µM; in [5] (setting [10]), 2 µM; in [5] (setting [11]) it was 1.4 µM. For the same compound, the EC50 was 0.6 µM in [5] (setting [13]) and 5.7 µM in [5] (best fit, human data duplicated, read-out: EC50 for the maximal conductance (GMAX) effect). The Emax was found to be 733% in test [1] (setting [12]); 631% in test [1] (best fit, 40 mV, read-out: ΔIamp, 40 mV, max); 188% in [1] (best fit, maximal change in GMAX, channel has time-dependent GMAX run-up, read-out: ΔGMAX, max); 515% in [3] (best fit, 0 mV, read-out: ΔIamp, 0 mV, max); 225% in test [3] (setting [12]). For the same compound, the “ΔV50, max” value in test [1] (best fit, maximal shift in V50) is on record as −70.4 mV; in test [3] (best fit, maximal shift in V50), −60.5 mV; in test [5] (best fit, maximal shift in V50, human data duplicated), −79.6 mV. Moreover, the “Itailmax;ARA-S” value is given as 11.2 µA in test [1] (representative cell, 10 µM ARA-S (Itailmax;ctrl = 4.4 µA)); 10.1 µA in [2] (representative cell, 10 µM ARA-S (Itailmax;ctrl = 6.2 µA)); 5.7 µA in test [3] (representative cell, 10 µM ARA-S (Itailmax;ctrl = 3.7 µA)). Besides, the “V50;ARA-S” value in test [1] (representative cell, 10 µM ARA-S (V50;ctrl = +44.1 mV)) is listed as −17.5 mV; in test [2] (representative cell, 10 µM ARA-S (V50;ctrl = +30.2 mV)), −23.0 mV; in test [3] (representative cell, 10 µM ARA-S (V50;ctrl = +23.9 mV)) it was −33.5 mV. In test [2] (10 µM of ARA-S, n = 5, mean ± sem), the “ARA-S effect on current amplitude at 0 mV reversed upon washout” value is listed as 50 ± 5%. In [4], the “anticipated maximal effect on V50” value is reported as −60 to −80 mV. The “ΔIamp, 0 mV, max” value in [5] (best fit, 0 mV) is “+497%”. Further, the “ΔIamp, 20 mV, max” value in test [5] (best fit, 20 mV) was “+197%”. In test [5] (best fit, 40 mV), the “ΔIamp, 40 mV, max” value is listed as “+58%”. Also, the “ΔGMAX, max” value in test [5] (best fit, maximal change in GMAX) is listed as “+83%”. In test [6], the “binding to cannabinoid receptor 1 (CB1)” value was “bind only weakly”. The “binding to CB2” value with CB2 is given as “no detectable binding”. The “binding to TRPV1 channels” value in the test with TRPV1 channels is recorded as “no detectable binding”. In addition, the “effect on prolonged QT interval” value in the test on guinea pig heart is on record as “reversed”. For the same compound, the “effect on prolonged action potential duration” value in the test with guinea pig heart was “reversed”.

For the compound `CC/C=C\C/C=C\C/C=C\C/C=C\C/C=C\C/C=C\CCC(=O)O` [DHA, docosahexaenoic acid], the effects on channel result in test [7] and in [8] was “largely comparable activating effects” each time.

Consider `CCCCC/C=C\C/C=C\CCCCCCCC(=O)NCC(=O)O` [Lin-Gly, linoleoyl glycine], for which the “effects on channel compared to the human Kv7.1/KCNE1 channel” value in test [9] is “impaired effects”.
